Results published in ChEMBL document CHEMBL1165960, “Identification of the three-dimensional pharmacophore of kappa-opioid receptor agonists” (Bioorg Med Chem, 2010).

Tests used:
[1] = Selectivity ratio of Ki for mu opioid receptor to kappa opioid receptor
[2] = target: Kappa-type opioid receptor (Homo sapiens, UniProt P41145); assay: Binding affinity to kappa opioid receptor
Sequence of Kappa-type opioid receptor (P41145 whole entry): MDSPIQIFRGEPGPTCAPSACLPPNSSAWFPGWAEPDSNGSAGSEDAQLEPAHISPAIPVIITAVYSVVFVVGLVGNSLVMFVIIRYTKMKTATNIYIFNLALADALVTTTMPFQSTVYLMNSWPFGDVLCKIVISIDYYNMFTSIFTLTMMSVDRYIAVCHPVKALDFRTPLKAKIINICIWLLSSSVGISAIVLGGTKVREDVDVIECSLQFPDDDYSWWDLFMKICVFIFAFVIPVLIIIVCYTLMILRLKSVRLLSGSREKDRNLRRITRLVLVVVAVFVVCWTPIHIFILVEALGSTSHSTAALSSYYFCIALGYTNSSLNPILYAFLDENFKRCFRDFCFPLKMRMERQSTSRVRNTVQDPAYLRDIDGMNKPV

Compound | Ratio Ki [1] | Ki [2]
O=C(NC[C@H]1C[C@]23CCN(CC4CC4)[C@H](Cc4ccc(O)cc42)[C@]3(O)CO1)c1ccccc1 | 1 | 0.135 nM
CCC12CCN(CC3(O)CC3)C(Cc3ccc(O)cc31)C2(C)C (stereo unspecified) [BREMAZOCINE] | 3.8 | 0.04 nM
COC(=O)[C@]12CN(C)C[C@](C(=O)OC)(C1=O)[C@@H](c1ccccn1)N(C)[C@H]2c1ccccn1 | > 66.7 | 15 nM
O=C(Nc1ccccc1)[C@@H]1O[C@@]23CC[C@@]1(O)[C@@H]1Oc4c(O)ccc5c4[C@@]12CCN(CC1CC1)[C@@H]3C5 | 1.3 | 0.152 nM
COc1ccc([C@H]2CN3C(=NC[C@@H]3C)N2CCCc2ccccc2)cc1 |  | 39 nM
O=C(Nc1ccccc1)[C@H]1O[C@@]23CCC1(O)[C@@H]1Oc4c(O)ccc5c4[C@@]12CCN(CC1CC1)[C@@H]3C5 (single isomer, unassigned) | 1.9 | 0.111 nM
CN(C(=O)/C=C/c1ccco1)[C@@H]1CC[C@@]2(O)[C@H]3Cc4ccc(O)c5c4[C@@]2(CCN3CC2CC2)[C@H]1O5 | 2.6 | 
NC(=O)[C@H]1CSSC[C@@H](NC(=O)[C@@H](N)Cc2ccc(O)cc2)C(=O)N[C@@H](Cc2ccccc2)C(=O)N1 | 0.03 | 38.7 nM
CN1c2ccccc2C(c2ccccc2F)=NCC1CNC(=O)c1ccsc1 (stereo unspecified) [TIFLUADOM] | 8.8 | 0.17 nM
